T/C data for 18 compounds are collected here from PubChem BioAssay AID220 (DTP/NCI, 2004).

Molecules are shown by their SMILES. “And” between values parts separate entries of the source, which are not always exact repeats. Equal values may be shown once. Records with an inconclusive call do not appear.

The assay concerns CD8F1 mice, subcutaneous mammary adenocarcinoma, T/C%. Briefly: NCI In Vivo Anticancer Drug Screen. Data for tumor model Mammary Adenocarcinoma CD8F1 (subcutaneous) in CD8F1. The following applies: higher = larger tumour. The essentials:
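Ratio of treated to vehicle-control outcome, based on either survival or tumor size, in mice bearing transplantable tumors given the test compound.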

[1] abbreviates: endpoint: median tumor weight change, dose: 125.0 mg/kg/injection, schedule: Q01DX001 (ip), vehicle: saline with Tween-80.
Setting [2] is: endpoint: median tumor weight change, dose: 250.0 mg/kg/injection, schedule: Q01DX001 (ip), vehicle: saline with Tween-80.
The mark [3] stands for this setting: endpoint: median tumor weight change, dose: 500.0 mg/kg/injection, schedule: Q01DX001 (ip), vehicle: saline with Tween-80.
Where [4] appears, read: endpoint: median tumor weight change, dose: 62.5 mg/kg/injection, schedule: Q01DX001 (ip), vehicle: saline with Tween-80.
The mark [5] stands for this setting: endpoint: median tumor weight (est.), dose: 6.25 mg/kg/injection, schedule: Q07DX005 (ip), vehicle: saline with Tween-80.
Where [6] appears, read: endpoint: median tumor weight (est.), dose: 12.5 mg/kg/injection, schedule: Q07DX005 (ip), vehicle: saline with Tween-80.
The mark [7] stands for this setting: endpoint: median tumor weight (est.), dose: 25.0 mg/kg/injection, schedule: Q07DX005 (ip), vehicle: saline with Tween-80.
Setting [8] is: endpoint: median tumor weight (est.), dose: 1.0 mg/kg/injection, schedule: Q07DX005 (ip), vehicle: Klucel (hydroxypropylcellulose) (HPC).

Take `c1ccc([Te][Te]c2ccccc2)cc1`: the T/C (endpoint: median tumor weight change, dose: 75.0 mg/kg/injection, schedule: Q01DX001 (ip), vehicle: Klucel (hydroxypropylcellulose) (HPC)) was 97 % of control; the T/C (endpoint: median tumor weight change, dose: 150.0 mg/kg/injection, schedule: Q01DX001 (ip), vehicle: Klucel (hydroxypropylcellulose) (HPC)) was 48 % of control; the T/C (endpoint: median tumor weight change, dose: 300.0 mg/kg/injection, schedule: Q01DX001 (ip), vehicle: Klucel (hydroxypropylcellulose) (HPC)) was 34 % of control.

With `Cc1c(N)nc(C(CC(N)=O)NCC(N)C(N)=O)nc1C(=O)NC(C(=O)NC(C)C(O)C(C)C(=O)NC(C(=O)NCCc1nc(-c2nc(C(=O)NCCCNC(C)c3ccccc3)cs2)cs1)C(C)O)C(OC1OC(CO)C(O)C(O)C1OC1OC(CO)C(O)C(OC(N)=O)C1O)c1cnc[nH]1` (configuration not stated), the T/C is 122 % of control (endpoint: median tumor weight (est.), dose: 0.5 mg/kg/injection, schedule: Q07DX005 (ip), vehicle: water); 123 % of control (endpoint: median tumor weight (est.), dose: 1.0 mg/kg/injection, schedule: Q07DX005 (ip), vehicle: water); 89 % of control (endpoint: median tumor weight (est.), dose: 2.0 mg/kg/injection, schedule: Q07DX005 (ip), vehicle: water); 29 % of control (endpoint: median tumor weight (est.), dose: 4.0 mg/kg/injection, schedule: Q07DX005 (ip), vehicle: water); 78 % of control (endpoint: median tumor weight (est.), dose: 8.0 mg/kg/injection, schedule: Q07DX005 (ip), vehicle: water); 21 % of control (endpoint: median tumor weight (est.), dose: 16.0 mg/kg/injection, schedule: Q07DX005 (ip), vehicle: water).

`O=C(O)CCCCCCCC(=O)O`: the T/C is, setting by setting: (endpoint: median tumor weight change, dose: 225.0 mg/kg/injection, schedule: Q01DX001 (ip), vehicle: distilled water + Tween-80) 122 % of control; (endpoint: median tumor weight change, dose: 450.0 mg/kg/injection, schedule: Q01DX001 (ip), vehicle: distilled water + Tween-80) 82 % of control.

For `CC(=O)N(C)O`, the T/C runs as follows: under setting [1], 80 % of control; under setting [2], 63 % of control; under setting [3], 50 % of control.

In the case of `CCC(C)C(=O)OC1C(=O)OC2CC3C(C)=CC(=O)C(O)C3(C)C3C4(O)OCC23C1C(C)C4O` (configuration not stated), the T/C (endpoint: median tumor weight (est.), dose: 0.5 mg/kg/injection, schedule: Q07DX005 (ip), vehicle: saline) was 70 % of control; the T/C (endpoint: median tumor weight (est.), dose: 1.0 mg/kg/injection, schedule: Q07DX005 (ip), vehicle: saline with Tween-80) was 237 % of control; the T/C (endpoint: median tumor weight (est.), dose: 1.0 mg/kg/injection, schedule: Q07DX005 (ip), vehicle: saline) was 95 % of control; the T/C (endpoint: median tumor weight (est.), dose: 2.0 mg/kg/injection, schedule: Q07DX005 (ip), vehicle: saline) was 70 % of control; the T/C (endpoint: median tumor weight (est.), dose: 4.0 mg/kg/injection, schedule: Q07DX005 (ip), vehicle: saline with Tween-80) was 165 % of control; the T/C (endpoint: median tumor weight (est.), dose: 4.0 mg/kg/injection, schedule: Q07DX005 (ip), vehicle: saline) was 74 % of control.

On to `CO[C@H]1C[C@](C)(O)Cc2cc3c(c(O)c21)C(=O)c1c(O)cc2c(c1C3=O)O[C@@H]1O[C@@]2(C)[C@H](O)[C@@H](N(C)C)[C@@H]1O`, for which the T/C is, setting by setting: (endpoint: median tumor weight (est.), dose: 7.0 mg/kg/injection, schedule: Q07DX005 (ip), vehicle: saline with Tween-80) 62 % of control; (endpoint: median tumor weight (est.), dose: 11.0 mg/kg/injection, schedule: Q07DX005 (ip), vehicle: saline with Tween-80) 60 % of control; (endpoint: median tumor weight (est.), dose: 16.0 mg/kg/injection, schedule: Q07DX005 (ip), vehicle: saline with Tween-80) 75 % of control; (endpoint: median tumor weight (est.), dose: 24.0 mg/kg/injection, schedule: Q07DX005 (ip), vehicle: saline with Tween-80) 64 % of control; (endpoint: median tumor weight (est.), dose: 48.0 mg/kg/injection, schedule: Q07DX005 (ip), vehicle: saline with Tween-80) 10 % of control.

On to `O=Cc1c(O)c2ccccc2[nH]c1=O`, for which the T/C runs as follows: (endpoint: median tumor weight change, dose: 62.0 mg/kg/injection, schedule: Q01DX001 (ip), vehicle: saline with Tween-80) 112 % of control; under setting [4], 69 % of control; under setting [2], 61 % of control and 67 % of control; under setting [3], 55 % of control.

`Cn1c(=O)c2ncnnc2n(C)c1=O`: the T/C (endpoint: median tumor weight (est.), dose: 4.7 mg/kg/injection, schedule: Q07DX005 (ip), vehicle: Klucel (hydroxypropylcellulose) (HPC)) is 59 % of control; the T/C (endpoint: median tumor weight (est.), dose: 9.4 mg/kg/injection, schedule: Q07DX005 (ip), vehicle: Klucel (hydroxypropylcellulose) (HPC)) is 63 % of control; the T/C (endpoint: median tumor weight (est.), dose: 18.8 mg/kg/injection, schedule: Q07DX005 (ip), vehicle: Klucel (hydroxypropylcellulose) (HPC)) is 52 % of control.

As for `O=C1C2CC=CCC2C(=O)N1SC(Cl)(Cl)Cl` (configuration not stated), the T/C is, setting by setting: (endpoint: median tumor weight (est.), dose: 3.12 mg/kg/injection, schedule: Q07DX005 (ip), vehicle: saline with Tween-80) 78 % of control; under setting [5], 70 % of control; under setting [6], 89 % of control; under setting [7], 74 % of control.

With `O=CC=O`, the T/C (endpoint: median tumor weight (est.), dose: 25.0 mg/kg/injection, schedule: Q07DX005 (ip), vehicle: Klucel (hydroxypropylcellulose) (HPC)) was 92 % of control and 100 % of control.

Consider `Nc1nc(=S)c2[nH]cnc2[nH]1`, for which the T/C reads like this: under setting [8], 71 % of control; (endpoint: median tumor weight (est.), dose: 2.0 mg/kg/injection, schedule: Q07DX005 (ip), vehicle: Klucel (hydroxypropylcellulose) (HPC)) 74 % of control; (endpoint: median tumor weight (est.), dose: 4.0 mg/kg/injection, schedule: Q07DX005 (ip), vehicle: Klucel (hydroxypropylcellulose) (HPC)) 42 % of control; (endpoint: median tumor weight (est.), dose: 8.0 mg/kg/injection, schedule: Q07DX005 (ip), vehicle: Klucel (hydroxypropylcellulose) (HPC)) 20 % of control; (endpoint: median tumor weight (est.), dose: 8.0 mg/kg/injection, schedule: Q07DX005 (ip), vehicle: other) 29 % of control; (endpoint: median tumor weight (est.), dose: 12.0 mg/kg/injection, schedule: Q07DX005 (ip), vehicle: other) 19 % of control. Besides, the T/C is, setting by setting: (endpoint: median tumor weight (est.), dose: 16.0 mg/kg/injection, schedule: Q07DX005 (ip), vehicle: Klucel (hydroxypropylcellulose) (HPC)) 7 % of control; (endpoint: median tumor weight (est.), dose: 16.0 mg/kg/injection, schedule: Q07DX005 (ip), vehicle: other) 16 % of control.

In the case of `C[n+]1c(/C=C\C=C\N2CCCCC2)sc2ccccc21`, the T/C by setting is: (endpoint: median tumor weight (est.), dose: 0.5 mg/kg/injection, schedule: Q07DX005 (ip), vehicle: Klucel (hydroxypropylcellulose) (HPC)) 114 % of control; under setting [8], 108 % of control.

As for `CC1CN=C(c2ccc(NC(=O)c3ccc(C(=O)Nc4ccc(C5=NCC(C)N5)cc4)cc3)cc2)N1` (configuration not stated), the T/C is, setting by setting: (endpoint: median tumor weight (est.), dose: 50.0 mg/kg/injection, schedule: Q07DX005 (ip), vehicle: Klucel (hydroxypropylcellulose) (HPC)) 51 % of control; (endpoint: median tumor weight (est.), dose: 100.0 mg/kg/injection, schedule: Q07DX005 (ip), vehicle: Klucel (hydroxypropylcellulose) (HPC)) 94 % of control; (endpoint: median tumor weight (est.), dose: 200.0 mg/kg/injection, schedule: Q07DX005 (ip), vehicle: Klucel (hydroxypropylcellulose) (HPC)) 36 % of control.

`O=C1CN(Cc2ccc3c(c2)OCO3)NO1`: the T/C reads like this: under setting [4], 80 % of control and 84 % of control; under setting [1], 113 % of control and 115 % of control; under setting [2], 80 % of control and 83 % of control; (endpoint: median tumor weight change, dose: 1000.0 mg/kg/injection, schedule: Q01DX001 (ip), vehicle: saline with Tween-80) 88 % of control.

For the compound `CCCCCCCCNc1cc2c3c(c1)CCCN3CCC2`, the T/C reads like this: (endpoint: median tumor weight (est.), dose: 0.75 mg/kg/injection, schedule: Q07DX005 (ip), vehicle: Klucel (hydroxypropylcellulose) (HPC)) 88 % of control; (endpoint: median tumor weight (est.), dose: 1.5 mg/kg/injection, schedule: Q07DX005 (ip), vehicle: Klucel (hydroxypropylcellulose) (HPC)) 87 % of control; (endpoint: median tumor weight (est.), dose: 3.0 mg/kg/injection, schedule: Q07DX005 (ip), vehicle: Klucel (hydroxypropylcellulose) (HPC)) 81 % of control; (endpoint: median tumor weight (est.), dose: 6.0 mg/kg/injection, schedule: Q07DX005 (ip), vehicle: Klucel (hydroxypropylcellulose) (HPC)) 103 % of control.

As for `NC(CNC(=O)CBr)C(=O)O` (configuration not stated), the T/C was 95 % of control (endpoint: median tumor weight change, dose: 62.5 mg/kg/injection, schedule: Q01DX001 (ip), vehicle: water) and 77 % of control (endpoint: median tumor weight change, dose: 125.0 mg/kg/injection, schedule: Q01DX001 (ip), vehicle: water).

Take `COc1cc2cc[n+](C)c(Cc3ccccc3)c2cc1OC`: the T/C is 123 % of control under setting [5]; 83 % of control under setting [6]; 94 % of control under setting [7]; 75 % of control (endpoint: median tumor weight (est.), dose: 50.0 mg/kg/injection, schedule: Q07DX005 (ip), vehicle: saline with Tween-80).

In the case of `COC1CC(C)C(OC)c2cc(O)cc(c2O)NC(=O)/C(C)=C/C=C\C(C)C(OC(N)=O)/C(C)=C\C(C)C1OC` (configuration not stated), the T/C by setting is: (endpoint: median tumor weight change, dose: 6.25 mg/kg/injection, schedule: Q01DX001 (ip), vehicle: saline + Tween-80 + alcohol) 87 % of control; (endpoint: median tumor weight change, dose: 12.5 mg/kg/injection, schedule: Q01DX001 (ip), vehicle: saline + Tween-80 + alcohol) 88 % of control; (endpoint: median tumor weight change, dose: 25.0 mg/kg/injection, schedule: Q01DX001 (ip), vehicle: saline + Tween-80 + alcohol) 87 % of control.
